Measured values reported in PMC10607100, “Anticancer and Antiphytopathogenic Activity of Fluorinated Isatins and Their Water-Soluble Hydrazone Derivatives” (International Journal of Molecular Sciences, 2023).
Converted amounts (≈) assume the structure as drawn. Where two headings read alike, the source gives them in different places.

Key:
[1] = system: Chang Liver; assay: MTT cell viability test, Chang liver; type: cell-based; conditions: Homo sapiens, incubation time 24 h
Method: (§1) Human cell cultures of tumor origin—HeLa (cervical tumor), HuTu 80 (human duodenal adenocarcinoma), ChangLiver (human liver HeLa-like line), and normal cell line WI38, VA 13 subline 2RA is a diploid human cell strain composed of fibroblasts derived from healthy lung tissue provided by The Gamaleya National Center for Epidemiology and Microbiology, as well as the Institute of Cytology of the Russian Academy of Sciences. They were grown in a nutrient medium DMEM (PanEco, Moscow, Russia) and MEM (PanEco, Moscow, Russia), containing fetal bovine serum (10% by volume) (ThermoFisher Scientific, Paisley, UK), Glutamax (2 mM) (Gibco, Scotland, UK), and penicillin-streptomycin (1% by volume) (PanEco, Moscow, Russia). The cultivation was carried out at 37 °C in a humidified CO2 atmosphere (5%).
(§2) Cell viability was determined by the MTT test. Cells were seeded in a 96-well plate in the amount of 1 × 10^4 cells/200 µL of complete nutrient medium and cultured at 37 °C in CO2 (5%). After 24 h of incubation, various concentrations of test compounds in the range of 0.1 to 100 μM were added to the cell cultures, and then the cells were cultured under the same conditions for 24 and 72 h. For each concentration, the experiment was carried out in triplicate.
(§3) All compounds were dissolved in DMSO and then diluted with the medium to the required concentration. […] The DMSO was also added to the control wells in a volume of 1%. After the incubation time, MTT (3-(4,5-dimethylthiazol-2-yl)-2,5-diphenyltetrazolium bromide, 5 mg/mL) was added to each well, and plates were additionally incubated for 2 h (until the characteristic color appeared).
(§4) Using a plate analyzer (Cytation3, BioTech Instruments Inc., Winooski, VT, USA), the optical density was determined at 530 nm.
(§5) The IC50 parameter was calculated using the AAT Bioquest program.

[2] = system: M-HeLa; assay: MTT cell viability test, M-HeLa; type: cell-based, human; conditions: Homo sapiens, M-HeLa; incubation time 24 h
Method: as §1, §2, §3, §4, §5
(§6) The selectivity index (SI) is calculated as the ratio between the IC50 for normal cells and the IC50 for cancer cells.

[3] = system: HuTu 80; assay: MTT cell viability test, HuTu 80; type: cell-based, human; conditions: Homo sapiens, HuTu80; incubation time 24 h
Method: as §1, §2, §3, §4, §5, §6

[4] = system: Xanthomonas campestris B-610; assay: Agar-well diffusion, bactericidal activity; type: cell-based
Method: Bacteria M. luteus, P. carotovorum subsp. carotovorum, P. atrosepticum, and P. fluorescens were grown in a meat–peptone medium (BP), and X. campestris was grown in the medium with glucose, yeast extract, and calcium carbonate (GYCa). Solid media contained Bacto agar (18 g/L); pH was adjusted to 7.2–7.4. […] For inoculum preparation, both fungal strains were initially grown on the agar GPY in Petri dishes and then transferred into the seed medium by punching out 5 mm of the agar plate culture with a self-designed cutter.
(§7) The antibacterial and antifungal activities of the compounds were explored using the agar-well diffusion method and the technique of mycelial radial growth inhibition. The method of diffusion in agar (measuring the diameter of growth inhibition zones) was used to determine the bactericidal activity. The 6-mm wells were made in agar medium (GYCa for Xanthomonas campestris or BP for other bacteria). Bacterial suspensions were distributed over the agar surface, and the tested compound’s solution (150 μL) was added to each well. The width of growth inhibition zones around the wells was determined after incubation for 36–40 h.

[5] = system: Pectobacterium carotovorum subsp. carotovorum MI; assay: Agar-well diffusion, bactericidal activity; type: cell-based
Source text: (§8) Plant pathogenic bacterial strains Micrococcus luteus B-109, Pectobacterium atrosepticum 1043, Pectobacterium carotovorum subsp. carotovorum MI, Pseudomonas fluorescens EL-2.1, and Xanthomonas campestris B-610 and the fungal strain Fusarium oxysporum IBPPM 543 were from the Collection of Rhizosphere Microorganisms, IBPPM RAS (WFCC no. 975, WDCM no. 1021) (CM IBPPM, http://collection.ibppm.ru). The pathogenic fungus Phytophthora cactorum VKM F-985, provided by the All-Russian Collection of Microorganisms (VKM) and deposited at the A.E. Favorsky Irkutsk Institute of Chemistry, SB RAS, was also used as a test organism. Bacteria M. luteus, P. carotovorum subsp. carotovorum, P. atrosepticum, and P. fluorescens were grown in a meat–peptone medium (BP), and X. campestris was grown in the medium with glucose, yeast extract, and calcium carbonate (GYCa). Solid media contained Bacto agar (18 g/L); pH was adjusted to 7.2–7.4. All bacterial cultures were grown at 28 °C. The mycelial cultures of F. oxysporum and P. cactorum were grown on a glucose–peptone–yeast (GPY) nutrient medium at 27 °C. For inoculum preparation, both fungal strains were initially grown on the agar GPY in Petri dishes and then transferred into the seed medium by punching out 5 mm of the agar plate culture with a self-designed cutter.
as §7

[6] = system: Pseudomonas fluorescens EL-2.1; assay: Agar-well diffusion, bactericidal activity; type: cell-based
Source text: as §8, §7

[7] = system: Pectobacterium atrosepticum 1043; assay: Agar-well diffusion, bactericidal activity; type: cell-based
Source text: as §8, §7

[8] = system: Micrococcus luteus B-109; assay: Agar-well diffusion, bactericidal activity; type: cell-based
Source text: as §8, §7

[9] = system: Phytophthora cactorum VKM F-985; assay: Mycelial radial growth inhibition; type: cell-based; conditions: Phytophthora cactorum; for inhibition at 10 µg/mL / inhibition at 15 µg/mL / inhibition at 30 µg/mL / inhibition at 60 µg/mL: read-out: Inhibition value, I (%)
Source text: as §8
(§9) For the fungicidal activity analysis, radial growth (colony diameters) of the fungi on a solid medium in the absence and in the presence of the compounds 5a–e and 7a–c solutions at various concentrations were compared. The method consisted of the following: A sterile GPY agar medium (20.0 mL), which was melted and then allowed to cool to approximately 60 °C, was mixed with the precisely measured volumes of the solutions under question and poured into a sterile Petri dish (90 mm i.d.). After the solidification of GPY agar, the media were inoculated by the fungus using 10-day-old cultures of F. oxysporum or P. cactorum. The inoculation was conducted by transferring a 5-mm (i.d.) GPY-agar block covered with mycelium to the center of the Petri dish, followed by incubation in a thermostat at 27 °C. The fungicidal effect was scored by the size of the mycelium colony on a Petri dish compared to the control without fungicidal admixtures to GPY agar. Each treatment was performed in at least four replicates in two independent experiments. The observation period ended when the control Petri dish was filled with mycelium (usually after 12 days). […] The solutions of the compounds were prepared with a concentration of 2 mmol/L (stock solution). For comparison, test compounds were also commonly applied as disinfecting agents, and antibiotics were used as a positive control.

[10] = system: Fusarium oxysporum IBPPM 543; assay: Mycelial radial growth inhibition; type: cell-based; conditions: Fusarium oxysporum; for inhibition at 10 µg/mL / inhibition at 15 µg/mL / inhibition at 30 µg/mL / inhibition at 60 µg/mL: read-out: Inhibition value, I (%)
Source text: as §8, §9

CC(C)(C)c1ccc(CN2C(=O)C(=O)c3cc(F)ccc32)cc1 [Compound 4c, 1-(4-(tert-Butyl)benzyl)-5-fluoroindoline-2,3-dione] showed an IC50 [1] of 92.1 ± 7.4 µM, a melting point of 123 to 124 °C and an IC50 [2] greater than 100 µM. The IC50 [3] was 43 ± 3 µM.
In the case of N=C(NCCCCCCNC(=N)NC(=N)Nc1ccc(Cl)cc1)NC(=N)Nc1ccc(Cl)cc1 [Chlorohexidin, chlorohexidin, reference compound], the “width of the inhibition zone (mm), X. campestris” value ([4]; 500 μg/mL) is reported as 5 mm, the “width of the inhibition zone (mm), P. carotovorum subsp. carotovorum” value ([5]; 500 μg/mL) is reported as 5 mm and the “width of the inhibition zone (mm), Ps. fluorescens” value ([6]; 500 μg/mL) is reported as 4 mm. For the same molecule, the “width of the inhibition zone (mm), P. atrosepticum” value ([7]; 500 μg/mL) was 4 mm and the “width of the inhibition zone (mm), M. luteus” value ([8]; 500 μg/mL) was 5 mm.
In the case of O=C1C(=O)N(Cc2c(F)cccc2F)c2ccccc21 [Compound 8c], the IC50 [1] is reported as 79 ± 5.5 µM, the IC50 [2] is reported as 98.8 ± 6.9 µM and the IC50 [3] is reported as 50.3 ± 3.6 µM.
In the case of O=C1C(=O)N(Cc2cccc(C(F)(F)F)c2)c2ccc(F)cc21 [Compound 3e, 5-Fluoro-1-(3-(trifluoromethyl)benzyl)indoline-2,3-dione], the melting point is reported as 170 to 171 °C.
CCn1cc(C(=O)O)c(=O)c2cc(F)c(N3CCNCC3)cc21 [Norfloxacin, norfloxacin, reference compound] showed a zone of inhibition at 500 µg/mL ([4]; Xanthomonas campestris, B610, read-out: width of the inhibition zone (mm), X. campestris) of 7 mm, a zone of inhibition at 500 µg/mL ([5]; Pectobacterium carotovorum, 500 μg/mL, read-out: width of the inhibition zone (mm), P. carotovorum subsp. carotovorum) of 8 mm and a zone of inhibition at 500 µg/mL ([6]; Pseudomonas fluorescens, EL2.1, 500 μg/mL, read-out: width of the inhibition zone (mm), Ps. fluorescens) of 8 mm. It also gave a zone of inhibition at 500 µg/mL ([7]; Pectobacterium atrosepticum, 1043, 500 μg/mL, read-out: width of the inhibition zone (mm), P. atrosepticum) of 7 mm and a zone of inhibition at 500 µg/mL ([8]; Micrococcus luteus, B109, 500 μg/mL, read-out: width of the inhibition zone (mm), M. luteus) of 7 mm.
Work on O=C1C(=O)N(Cc2c(F)cccc2F)c2ccc(F)cc21 [Compound 3c, 1-(2,6-Difluorobenzyl)-5-fluoroindoline-2,3-dione] yielded an IC50 [1] of 95.5 ± 8 µM, a melting point of 131 to 132 °C and an IC50 [2] of 65.7 ± 5.9 µM. The IC50 [3] was 41.2 ± 2.7 µM.
In the case of [Na+].[O-]Cl [sodium hypochlorite, reference compound], the “width of the inhibition zone (mm), X. campestris” value ([4]; 1000 μg/mL) is reported as 4 mm, the “width of the inhibition zone (mm), P. carotovorum subsp. carotovorum” value ([5]; 1000 μg/mL) is reported as 3 mm and the “width of the inhibition zone (mm), Ps. fluorescens” value ([6]; 1000 μg/mL) is reported as 4 mm. For the same molecule, the “width of the inhibition zone (mm), P. atrosepticum” value ([7]; 1000 μg/mL) was 4 mm and the “width of the inhibition zone (mm), M. luteus” value ([8]; 1000 μg/mL) was 2.5 mm.
N#Cc1c[nH]cc1-c1cccc2c1OC(F)(F)O2 [Fludioxonil, fludioxonil, reference compound] gave an inhibition at 10 µg/mL ([9]; 72 h) of 36%, an inhibition at 15 µg/mL ([9]; 72 h) of 38% and an inhibition at 30 µg/mL ([9]; 72 h) of 40%. The inhibition at 60 µg/mL ([9]; 72 h) was 52%, the EC50 ([9]; 120 h, read-out: EC50, µg/mL at Day 5, P. cactorum) was 29.5 µg/mL (≈ 119 µM) and the inhibition at 10 µg/mL ([9]; 120 h) was 38%. The inhibition at 15 µg/mL ([9]; 120 h) was 46%, the inhibition at 30 µg/mL ([9]; 120 h) was 51% and the inhibition at 60 µg/mL ([9]; 120 h) was 57%. It also gave an inhibition at 10 µg/mL ([9]; 168 h) of 35%, an inhibition at 15 µg/mL ([9]; 168 h) of 42% and an inhibition at 30 µg/mL ([9]; 168 h) of 46%. For the same molecule, the inhibition at 60 µg/mL ([9]; 168 h) was 49%, the inhibition at 10 µg/mL ([9]; 216 h) was 9% and the inhibition at 15 µg/mL ([9]; 216 h) was 17%. The inhibition at 30 µg/mL ([9]; 216 h) was 23%, the inhibition at 60 µg/mL ([9]; 216 h) was 29% and the inhibition at 10 µg/mL ([10]; IBPPM543, 72 h) was 18%. It also gave an inhibition at 15 µg/mL ([10]; IBPPM543, 72 h) of 21%, an inhibition at 30 µg/mL ([10]; IBPPM543, 72 h) of 26% and an inhibition at 60 µg/mL ([10]; IBPPM543, 72 h) of 32%. It also gave an EC50 ([10]; IBPPM543, 120 h, read-out: EC50, µg/mL at Day 5, F. oxysporum) of 83.3 µg/mL (≈ 336 µM), an inhibition at 10 µg/mL ([10]; IBPPM543, 120 h) of 23% and an inhibition at 15 µg/mL ([10]; IBPPM543, 120 h) of 30%. It also gave an inhibition at 30 µg/mL ([10]; IBPPM543, 120 h) of 33%, an inhibition at 60 µg/mL ([10]; IBPPM543, 120 h) of 35% and an inhibition at 10 µg/mL ([10]; IBPPM543, 168 h) of 6%. For the same molecule, the inhibition at 15 µg/mL ([10]; IBPPM543, 168 h) was 20%, the inhibition at 30 µg/mL ([10]; IBPPM543, 168 h) was 23% and the inhibition at 60 µg/mL ([10]; IBPPM543, 168 h) was 25%. For the same molecule, the inhibition at 10 µg/mL ([10]; IBPPM543, 216 h) was 4%, the inhibition at 15 µg/mL ([10]; IBPPM543, 216 h) was 5% and the inhibition at 30 µg/mL ([10]; IBPPM543, 216 h) was 8%. For the same molecule, the inhibition at 60 µg/mL ([10]; IBPPM543, 216 h) was 9%.
